Measurements: paper PMC6789118, “Structural basis for substrate specificity and regulation of nucleotide sugar transporters in the lipid bilayer” (Nature Communications, 2019)
Where a chain is given by its changes, count along the chain named.

Key:
Vrg4 wild type (WT) = test system: Vrg4 wild type (WT); design: method as in PMID 29143814; conditions: WT Vrg4 in yeast polar lipid liposomes, 0.5 mM GMP inside, 3H-GMP uptake, cold competitor outside, 3 min; WT data published previously ref 10; cited from earlier work
Vrg4 N221A variant = target: T1, Vrg4 N221A variant (Saccharomyces cerevisiae, UniProt P40107, N221A); test: IC50 competition of 3H-GMP uptake into proteoliposomes, N221A variant; assay type: biochemical
T1 construct: GFP (cleaved yes); made in house; host or cells: S. cerevisiae strain BJ5460
T1 sequence (P40107 whole entry N221A): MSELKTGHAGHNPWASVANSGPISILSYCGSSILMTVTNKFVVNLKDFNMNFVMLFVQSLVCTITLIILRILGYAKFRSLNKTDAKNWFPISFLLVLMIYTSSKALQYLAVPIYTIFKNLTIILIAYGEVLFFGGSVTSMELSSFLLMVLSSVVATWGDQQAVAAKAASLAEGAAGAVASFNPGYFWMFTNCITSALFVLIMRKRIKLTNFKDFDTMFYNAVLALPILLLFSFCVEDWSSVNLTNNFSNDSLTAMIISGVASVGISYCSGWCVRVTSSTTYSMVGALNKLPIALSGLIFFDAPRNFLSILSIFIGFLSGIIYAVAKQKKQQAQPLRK
Experimental: (§1) Vrg4 was reconstituted into liposomes made from yeast polar lipids using the dilution method into preformed lipid vesicles. Chloroform was removed from yeast polar lipids (Avanti polar lipids) through the use of a rotary evaporator to obtain a thin film. The lipids were washed twice in pentane and then resuspended at 5 mg ml^−1 in lipid buffer (20 mM HEPES pH 7.5, 100 mM KCl). These lipid vesicles were frozen and thawed twice in liquid nitrogen and stored at −80 °C until required. For reconstitution, the lipids were thawed and then extruded first through a 0.8-μm filter and then through a 0.4-μm filter. Purified Vrg4 in DM (at 0.5 μg μl^−1 concentration) was added to the lipids at a final lipid:protein ratio of 80:1 and incubated for 1 h at room temperature, then for a further 1 h on ice; for the no-protein liposome control, the same volume of gel filtration buffer containing 0.3% DM was added. […] The amount of protein (both wild-type and mutant variants) reconstituted into the lipids was quantified by SDS–PAGE and densitometry.
(§2) To analyse transport activity, proteoliposomes were thawed and the desired concentration of internal substrate was added (typically 0.5 mM for mutant variant analysis). […] The amount of GMP transported inside the liposomes was calculated by scintillation counting in Ultima Gold (Perkin Elmer) […]

Vrg4 N220A variant = target: T2, Vrg4 N220A variant (Saccharomyces cerevisiae, UniProt P40107, N220A); test: IC50 competition of 3H-GMP uptake into proteoliposomes, N220A variant; assay type: biochemical
T2 construct: GFP (cleaved yes); made in house; host or cells: S. cerevisiae strain BJ5460
T2 sequence (P40107 whole entry N220A): as the sequence (P40107 whole entry N221A) above, with N220A, A221N counted along it
Experimental: as §1, §2

Vrg4 [1] = target: T3, Vrg4 (Saccharomyces cerevisiae, UniProt P40107); design: method as in PMID 29143814; conditions: GDP-mannose:GMP compared with GMP:GMP in liposome-based assays ref 10; cited from earlier work
T3 construct: GFP (cleaved yes); made in house; host or cells: S. cerevisiae strain BJ5460
T3 sequence (P40107 1-337): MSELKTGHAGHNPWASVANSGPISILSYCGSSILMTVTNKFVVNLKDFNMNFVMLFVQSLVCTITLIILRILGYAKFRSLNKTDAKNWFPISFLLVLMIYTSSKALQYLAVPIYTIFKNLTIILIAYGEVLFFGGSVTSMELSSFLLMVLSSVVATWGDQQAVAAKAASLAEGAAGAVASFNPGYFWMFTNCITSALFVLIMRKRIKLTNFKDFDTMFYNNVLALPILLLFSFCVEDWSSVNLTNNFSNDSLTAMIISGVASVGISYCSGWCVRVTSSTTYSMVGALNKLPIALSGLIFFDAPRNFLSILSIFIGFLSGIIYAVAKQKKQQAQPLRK

Vrg4 S269A variant = target: T4, Vrg4 S269A variant (Saccharomyces cerevisiae, UniProt P40107, S269A); test: IC50 competition of 3H-GMP uptake into proteoliposomes, S269A variant; assay type: biochemical; conditions: S269A variant (removal of S269); in words
T4 construct: GFP (cleaved yes); made in house; host or cells: S. cerevisiae strain BJ5460
T4 sequence (P40107 whole entry S269A): as the sequence (P40107 whole entry N221A) above, with A221N, S269A counted along it
Experimental: as §1, §2

Vrg4 Y281F variant = target: T5, Vrg4 Y281F variant (Saccharomyces cerevisiae, UniProt P40107, Y281F); test: IC50 competition of 3H-GMP uptake into proteoliposomes, Y281F variant; assay type: biochemical
T5 construct: GFP (cleaved yes); made in house; host or cells: S. cerevisiae strain BJ5460
T5 sequence (P40107 whole entry Y281F): as the sequence (P40107 whole entry N221A) above, with A221N, Y281F counted along it
Experimental: as §1, §2

Vrg4 S266A variant = target: T6, Vrg4 S266A variant (Saccharomyces cerevisiae, UniProt P40107, S266A); test: IC50 competition of 3H-GMP uptake into proteoliposomes, S266A variant; assay type: biochemical; conditions: in words
T6 construct: GFP (cleaved yes); made in house; host or cells: S. cerevisiae strain BJ5460
T6 sequence (P40107 whole entry S266A): as the sequence (P40107 whole entry N221A) above, with A221N, S266A counted along it
Experimental: as §1, §2

Vrg4 [2] = target: T3, Vrg4; test: Liposome-based transport rates under different antiport conditions; assay type: biochemical; conditions: 22 °C, rank among antiport conditions
Experimental: as §1, §2

Vrg4 Y281A variant = target: T7, Vrg4 Y281A variant (Saccharomyces cerevisiae, UniProt P40107, Y281A); test: Thermal stability in the presence of ligand, Y281A variant; assay type: binding; conditions: 1 mM GMP, N=3
T7 construct: GFP (cleaved yes); made in house; host or cells: S. cerevisiae strain BJ5460
T7 sequence (P40107 whole entry Y281A): as the sequence (P40107 whole entry N221A) above, with A221N, Y281A counted along it
Experimental: (§3) Thermal stability of protein samples was analysed using a Prometheus NT.48 (NanoTemper Technologies)[39]. The proteins were diluted to a final concentration of 0.7 mg ml^−1 into buffer containing 20 mM Hepes, pH 7.5, 50 mM KCl, 2 mM magnesium sulphate and 0.03% (w/v) DDM or 0.3% DM. Thermal measurements were carried out in a range from 20 to 95 °C with 1 °C per min steps. The resulting melting curves were generated by plotting the first derivative of the fluorescence ratio at 330 nm/350 nm (excitation 280 nm) against temperature. For stability in the presence of ligand (GMP) the ligand was added to the sample at a final concentration of 0.5 mM and the sample was incubated at room temperature for 5 min prior to analysis. For the sample in liposomes, reconstituted Vrg4, at a protein concentration of 0.4 mg ml^−1, in yeast polar lipids were prepared in 20 mM Hepes, pH 7.5, 50 mM KCl, 2 mM magnesium sulphate and extruded through a 0.4 μm membrane prior to analysis. For the solubilised liposome sample, liposomes were solubilised in 1.5% DDM for one hour and centrifuged at 100,000 × g for 30 min prior to analysis.

Vrg4 K118A variant [3] = target: T8, Vrg4 K118A variant (Saccharomyces cerevisiae, UniProt P40107, K118A); test: Thermal stability in the presence of ligand, K118A variant; assay type: binding; conditions: 1 mM GMP
T8 construct: GFP (cleaved yes); made in house; host or cells: S. cerevisiae strain BJ5460
T8 sequence (P40107 whole entry K118A): as the sequence (P40107 whole entry N221A) above, with K118A, A221N counted along it
Experimental: as §3

Vrg4 K118A variant [4] = target: T9, Vrg4 K118A variant (Saccharomyces cerevisiae, UniProt P40107 1-337, K118A); test: cell-based or functional assay
T9 sequence: T3 sequence (P40107 1-337) with K118A

## Nc1ncnc2c1ncn2[C@@H]1O[C@H](COP(=O)(O)O)[C@@H](O)[C@H]1O [AMP]
Vrg4 wild type (WT)
  IC50: 50 µM
Vrg4 N221A variant
  IC50: 27 µM
Vrg4 N220A variant; N220A variant, IC50 analysis, in words
  affinity compared with WT: markedly reduced

## Nc1nc2c(ncn2[C@@H]2O[C@H](COP(=O)(O)OP(=O)(O)O[C@H]3O[C@H](CO)[C@@H](O)[C@H](O)[C@@H]3O)[C@@H](O)[C@H]2O)c(=O)[nH]1 [GDP-mannose]
Vrg4 [1]
  transport efficiency: more efficient
Vrg4 S269A variant
  change in the IC50 compared with WT: did not result in any significant change
Vrg4 wild type (WT)
  IC50: 7.6 µM
Vrg4 Y281F variant; Y281F variant, IC50 analysis, in words
  affinity of the variant compared with wild type: remains the same as wild type
Vrg4 S266A variant; IC50 analysis
  affinity compared with WT: only slightly reduced
Vrg4 [2]; GDP-mannose:GDP-mannose antiport (transported against itself), 0.5 mM inside, 20 μM outside
  transport rate: fastest

## Nc1nc2c(ncn2[C@@H]2O[C@H](COP(=O)(O)O)[C@@H](O)[C@H]2O)c(=O)[nH]1 [GMP, guanine monophosphate]
Vrg4 Y281A variant
  thermal stabilisation of the protein by ligand: not stabilised
Vrg4 S269A variant
  change in the IC50 compared with WT: did not result in any significant change
Vrg4 wild type (WT)
  IC50: 7 µM
Vrg4 Y281F variant
  IC50: 23 µM
Vrg4 S266A variant
  IC50 value for GMP transport compared with WT: significant increase
Vrg4 [2]; GMP:AMP antiport, 1 mM AMP inside, 20 μM GMP outside
  transport rate: slowest
Vrg4 K118A variant [3]
  thermal stabilisation of the protein by ligand: stabilised to a similar extent as WT Vrg4
Vrg4 N221A variant
  IC50: 22 µM
Vrg4 N220A variant
  IC50: 12 µM

B1: Vrg4, GDP-mannose transporter from Saccharomyces cerevisiae (wild type) (natural protein)
chain: T3 sequence (P40107 1-337)
Vrg4 K118A variant [4]
  dominant negative assay: transport of 3H-GMP into liposomes reconstituted with equimolar WT and K118A (also at 75 and 25% WT), relative to WT alone: ~75%
